# Assay results as given in ChEMBL document CHEMBL5046216, “Disrupting Tryptophan in the Central Hydrophobic Region Selectively Mitigates Immunomodulatory Activities of the Innate Defence Regulator Peptide IDR-1002” (J Med Chem, 2021).
# The source made the active and inactive calls. The rule behind the calls is not given here.
# Experiments:
# HBEC3-KT [1] = assay: Antiinflammatory activity in human HBEC3-KT cells assessed as effect on MCP1 expression measured after 24 hrs by ELISA relative to control; type: functional, cell-based
# HBEC3-KT [2] = assay: Antiinflammatory activity in INFgamma-induced MCP1 expressed in human HBEC3-KT cells assessed as fold change measured after 24 hrs by ELISA relative to control; type: functional
# HBEC3-KT [3] = assay: Immunomodulatory activity in human HBEC3-KT cells assessed as suppression of INFgamma-induced IL-33 at 10 uM preincubated for 30 mins followed by INFgamma stimulation and measured after 24 hrs by Western blot analysis; type: functional; conditions: 0.5 h
# HBEC3-KT [4] = assay: Cytotoxicity against human HBEC3-KT incubated for 24 hrs by LDH assay; type: functional
# HBEC3-KT [5] = assay: Antiinflammatory activity in human HBEC3-KT cells assessed as fold increase in IL-1RA expression at 10 uM measured after 24 hrs by ELISA relative to control; type: functional
# [6] = Retention time of the compound by HPLC analysis; type: physicochemical
# HBEC3-KT [7] = assay: Antiinflammatory activity in human HBEC3-KT cells assessed as fold increase in STC1 expression at 10 uM measured after 24 hrs by ELISA relative to control; type: functional
substance,measurement,setting,value
H-VRRWLIVWRIRK-OH,Activity,HBEC3-KT [1],inactive
same,fold change (FC),HBEC3-KT [2],2.9
same,Activity,HBEC3-KT [3],70%
same,Activity,HBEC3-KT [4],<=15%
same,fold change (FC),HBEC3-KT [5],2.6
same,Retention_time,[6],16.06 min
same,fold change (FC),HBEC3-KT [7],6
